Assay: stabilization of FK506 dissolved in lower alkanediols
Format: physicochemical
Settings: such as ethylene glycol, propylene glycol, butylene glycol
Procedure: It was also confirmed that carboxybinyl polymer could make FK506 stable, when FK506 was dissolved in lower alkanediols, such as ethylene glycol, propylene glycol, butylene glycol, etc. And, it was further confirmed that a combination of hydroxypropyl cellulose and ascorbyl palmitate could also make FK506 stable, when FK506 was dissolved in lower alkanediols, such as ethylene glycol, propylene glycol, butylene glycol, etc.

stability of FK506 with carboxybinyl polymer (carboxybinyl polymer added): stable
stability of FK506 with a combination of hydroxypropyl cellulose and ascorbyl palmitate (hydroxypropyl cellulose and ascorbyl palmitate added): stable
Structure (SMILES): C=CC[C@@H]1/C=C(\C)C[C@H](C)C[C@H](OC)[C@H]2O[C@@](O)(C(=O)C(=O)N3CCCC[C@H]3C(=O)O[C@H](/C(C)=C/[C@@H]3CC[C@@H](O)[C@H](OC)C3)[C@H](C)[C@@H](O)CC1=O)[C@H](C)C[C@@H]2OC [FK506, 17-allyl-1,14-dihydroxy-12-[2-(4-hydroxy-3-methoxycyclohexyl)-1-methylvinyl]-23,25-dimethoxy-13,19,21,27-tetramethyl-11,28-dioxa-4-azatricyclo[22.3.1.0^4,9]octacos-18-ene-2,3,10,16-tetraone]
